Results from patent US20260274829A1, “NEW E3 UBIQUITIN LIGASE LIGAND, PROTEIN DEGRADATION AGENT AND USE THEREOF” (GLUETACS THERAPEUTICS (SHANGHAI) CO., LTD., priority 2023, published 2026).

Biological target: T1, human Cereblon WT GST-tagged protein (Homo sapiens, UniProt Q96SW2)
T1 construct: purchased CISBIO 64BDCRBNPEH
Test: CRBN binding, HTRF CEREBLON BINDING kit
Details: CRBN binding, HTRF CEREBLON BINDING kit
In short: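 HTRF competition in which test compounds displace a Thalidomide-Re tracer from GST-tagged human Cereblon WT, detected with a GST Eu antibody. Incubation lasted 3 hours at room temperature, with emission read at 620 and 665 nm. Inhibition rate was derived from 665/620 ratios relative to blank and solvent control wells.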

T1 sequence (Q96SW2 whole entry): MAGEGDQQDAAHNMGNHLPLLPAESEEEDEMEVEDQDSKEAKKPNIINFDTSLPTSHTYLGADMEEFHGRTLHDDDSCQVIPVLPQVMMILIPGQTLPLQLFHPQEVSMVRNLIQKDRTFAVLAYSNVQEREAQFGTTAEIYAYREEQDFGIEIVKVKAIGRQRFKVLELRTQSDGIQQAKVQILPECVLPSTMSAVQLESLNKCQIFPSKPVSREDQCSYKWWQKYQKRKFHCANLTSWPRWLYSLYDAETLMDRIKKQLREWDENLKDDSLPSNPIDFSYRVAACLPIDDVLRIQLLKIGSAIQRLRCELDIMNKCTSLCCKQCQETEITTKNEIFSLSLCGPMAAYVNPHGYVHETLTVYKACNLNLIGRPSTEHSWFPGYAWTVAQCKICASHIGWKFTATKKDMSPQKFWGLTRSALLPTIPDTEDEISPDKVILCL

SMILES	IC50 [nM]
COc1cc(N2CCC(N3CCN(Cc4ccc(C5CCC(=O)NC5=O)cc4)CC3)CC2)c(C)cc1Nc1ncc(Br)c(Nc2ccc3nccnc3c2P(C)(C)=O)n1 (centres unmarked) [GT-05999, 3-(4-((4-(1-(4-((5-bromo-4-((5-(dimethylphosphoryl)quinoxalin-6-yl)amino)pyrimidin-2-yl)amino)-5-methoxy-2-methylphenyl)piperidin-4-yl)piperazin-1-yl)methyl)phenyl)piperidine-2,6-dione]	1000 to 1900
COc1cc(N2CCC(N3CCN(Cc4ccc(N5CCC(=O)NC5=O)cn4)CC3)CC2)c(C)cc1Nc1ncc(Br)c(Nc2ccc3nccnc3c2P(C)(C)=O)n1 [GT-06003, 1-(6-((4-(1-(4-((5-bromo-4-((5-(dimethylphosphoryl)quinoxalin-6-yl)amino)pyrimidin-2-yl)amino)-5-methoxy-2-methylphenyl)piperidin-4-yl)piperazin-1-yl)methyl)pyridin-3-yl)dihydropyrimidine-2,4(1H,3H)-dione]	1000 to 1900
COC1CCN(c2nccc(Nc3cc4c(cn3)c(N3CCN(Cc5ccc(C6CCC(=O)NC6=O)cc5)CC3)nn4C(C)C)n2)CC1 (centres unmarked) [GT-06036, 3-(4-((4-(1-isopropyl-6-((2-(4-methoxypiperidin-1-yl)pyrimidin-4-yl)amino)-1H-pyrazolo[4,3-c]pyridin-3-yl)piperazin-1-yl)methyl)phenyl)piperidine-2,6-dione]	1000 to 1900
CC(C)n1nc(N2CCC(N3CCN(Cc4cccc(N5CCC(=O)NC5=O)c4)CC3)CC2)c2cnc(Nc3ccnc(-c4cnn(S(=O)(=O)C5CC5)c4)n3)cc21 [GT-06080, 1-(3-((4-(1-(6-((2-(1-(cyclopropylsulfonyl)-1H-pyrazol-4-yl)pyrimidin-4-yl)amino)-1-isopropyl-1H-pyrazolo[4,3-c]pyridin-3-yl)piperidin-4-yl)piperazin-1-yl)methyl)phenyl)dihydropyrimidine-2,4(1H,3H)-dione]	500 to 1000
COC1CCN(c2nccc(Nc3cc4c(cn3)c(N3CCC(N(C)Cc5cccc(N6CCC(=O)NC6=O)c5)CC3)nn4C(C)C)n2)CC1 [GT-06122, 1-(3-(((1-(1-isopropyl-6-((2-(4-methoxypiperidin-1-yl)pyrimidin-4-yl)amino)-1H-pyrazolo[4,3-c]pyridin-3-yl)piperidin-4-yl)(methyl)amino)methyl)phenyl)dihydropyrimidine-2,4(1H,3H)-dione]	1000 to 1900
COC1CCN(c2nccc(Nc3cc4c(cn3)c(N3CCC(N(C)Cc5cccc(NC6CCC(=O)NC6=O)c5)CC3)nn4C(C)C)n2)CC1 (centres unmarked) [GT-06123, 3-((3-(((1-(1-isopropyl-6-((2-(4-methoxypiperidin-1-yl)pyrimidin-4-yl)amino)-1H-pyrazolo[4,3-c]pyridin-3-yl)piperidin-4-yl)(methyl)amino)methyl)phenyl)amino)piperidine-2,6-dione]	500 to 1000
O=C1CCC(c2ccc(CN3CCN(c4ccc(-c5cc(F)c6c(c5)C(=O)N(C(C(=O)Nc5nccs5)c5ncn7c5CCC7)C6)cc4)CC3)cc2)C(=O)N1 (centres unmarked) [GT-06163, 2-(6,7-dihydro-5H-pyrrolo[1,2-c]imidazol-1-yl)-2-(6-(4-(4-(4-(2,6-dioxopiperidin-3-yl)benzyl)piperazin-1-yl)phenyl)-4-fluoro-1-oxoisoindolin-2-yl)-N-(thiazol-2-yl)acetamide]	500 to 1000
O=C1CCN(c2ccc(CN3CCN(c4ccc(-c5cc(F)c6c(c5)C(=O)N(C(C(=O)Nc5nccs5)c5ncn7c5CCC7)C6)cc4)CC3)cc2)C(=O)N1 (centres unmarked) [GT-06164, 2-(6,7-dihydro-5H-pyrrolo[1,2-c]imidazol-1-yl)-2-(6-(4-(4-(4-(2,4-dioxotetrahydropyrimidin-1(2H)-yl)benzyl)piperazin-1-yl)phenyl)-4-fluoro-1-oxoisoindolin-2-yl)-N-(thiazol-2-yl)acetamide]	500 to 1000
O=C1CCN(c2cccc(CN3CCN(c4ccc(-c5cc(F)c6c(c5)C(=O)N(C(C(=O)Nc5nccs5)c5ncn7c5CCC7)C6)cc4)CC3)c2)C(=O)N1 (centres unmarked) [GT-06165, 2-(6,7-dihydro-5H-pyrrolo[1,2-c]imidazol-1-yl)-2-(6-(4-(4-(3-(2,4-dioxotetrahydropyrimidin-1(2H)-yl)benzyl)piperazin-1-yl)phenyl)-4-fluoro-1-oxoisoindolin-2-yl)-N-(thiazol-2-yl)acetamide]	< 500
O=C1CCC(c2ccc(CN3C[C@H]4C[C@@H]3CN4c3ccc(-c4cc(F)c5c(c4)C(=O)N(C(C(=O)Nc4nccs4)c4ncn6c4CCC6)C5)cc3)cc2)C(=O)N1 (stereo partly drawn) [GT-06176, 2-(6,7-dihydro-5H-pyrrolo[1,2-c]imidazol-1-yl)-2-(6-(4-((1R,4R)-5-(4-(2,6-dioxopiperidin-3-yl)benzyl)-2,5-diazabicyclo[2.2.1]heptan-2-yl)phenyl)-4-fluoro-1-oxoisoindolin-2-yl)-N-(thiazol-2-yl)acetamide]	500 to 1000
O=C1CCN(c2ccc(CN3C[C@H]4C[C@@H]3CN4c3ccc(-c4cc(F)c5c(c4)C(=O)N(C(C(=O)Nc4nccs4)c4ncn6c4CCC6)C5)cc3)cc2)C(=O)N1 (stereo partly drawn) [GT-06177, 2-(6,7-dihydro-5H-pyrrolo[1,2-c]imidazol-1-yl)-2-(6-(4-((1R,4R)-5-(4-(2,4-dioxotetrahydropyrimidin-1(2H)-yl)benzyl)-2,5-diazabicyclo[2.2.1]heptan-2-yl)phenyl)-4-fluoro-1-oxoisoindolin-2-yl)-N-(thiazol-2-yl)acetamide]	< 500
O=C1CCN(c2cccc(CN3C[C@H]4C[C@@H]3CN4c3ccc(-c4cc(F)c5c(c4)C(=O)N(C(C(=O)Nc4nccs4)c4ncn6c4CCC6)C5)cc3)c2)C(=O)N1 (stereo partly drawn) [GT-06178, 2-(6,7-dihydro-5H-pyrrolo[1,2-c]imidazol-1-yl)-2-(6-(4-((1R,4R)-5-(3-(2,4-dioxotetrahydropyrimidin-1(2H)-yl)benzyl)-2,5-diazabicyclo[2.2.1]heptan-2-yl)phenyl)-4-fluoro-1-oxoisoindolin-2-yl)-N-(thiazol-2-yl)acetamide]	< 500
O=C1CCC(Nc2cccc(CN3C[C@H]4C[C@@H]3CN4c3ccc(-c4cc(F)c5c(c4)C(=O)N(C(C(=O)Nc4nccs4)c4ncn6c4CCC6)C5)cc3)c2)C(=O)N1 (stereo partly drawn) [GT-06179, 2-(6,7-dihydro-5H-pyrrolo[1,2-c]imidazol-1-yl)-2-(6-(4-((1R,4R)-5-(3-((2,6-dioxopiperidin-3-yl)amino)benzyl)-2,5-diazabicyclo[2.2.1]heptan-2-yl)phenyl)-4-fluoro-1-oxoisoindolin-2-yl)-N-(thiazol-2-yl)acetamide]	500 to 1000
O=C1CCN(c2ccc(CN3C[C@H]4C[C@@H]3CN4c3ccc(-c4cc(F)c5c(c4)C(=O)N(C(C(=O)Nc4nccs4)c4ncn6c4CCC6)C5)cc3)nc2)C(=O)N1 (stereo partly drawn) [GT-06190, 2-(6,7-dihydro-5H-pyrrolo[1,2-c]imidazol-1-yl)-2-(6-(4-((1R,4R)-5-((5-(2,4-dioxotetrahydropyrimidin-1(2H)-yl)pyridin-2-yl)methyl)-2,5-diazabicyclo[2.2.1]heptan-2-yl)phenyl)-4-fluoro-1-oxoisoindolin-2-yl)-N-(thiazol-2-yl)acetamide]	500 to 1000
O=C1CCN(c2ccc(CN3CCN(c4ccc(-c5cc(F)c6c(c5)C(=O)N(C(C(=O)Nc5nccs5)c5ncn7c5CCC7)C6)cc4)CC3)nc2)C(=O)N1 (centres unmarked) [GT-06229, 2-(6,7-dihydro-5H-pyrrolo[1,2-c]imidazol-1-yl)-2-(6-(4-(4-((5-(2,4-dioxotetrahydropyrimidin-1(2H)-yl)pyridin-2-yl)methyl)piperazin-1-yl)phenyl)-4-fluoro-1-oxoisoindolin-2-yl)-N-(thiazol-2-yl)acetamide]	500 to 1000
O=C1CCC(c2ccc(CN3CCN(C4CCN(c5ccc(-c6cc(F)c7c(c6)C(=O)N(C(C(=O)Nc6nccs6)c6ncn8c6CCC8)C7)cc5)CC4)CC3)cc2)C(=O)N1 (centres unmarked) [GT-06243, 2-(6,7-dihydro-5H-pyrrolo[1,2-c]imidazol-1-yl)-2-(6-(4-(4-(4-(4-(2,6-dioxopiperidin-3-yl)benzyl)piperazin-1-yl)piperidin-1-yl)phenyl)-4-fluoro-1-oxoisoindolin-2-yl)-N-(thiazol-2-yl)acetamide]	< 500
O=C1CCN(c2ccc(CN3CCN(C4CCN(c5ccc(-c6cc(F)c7c(c6)C(=O)N(C(C(=O)Nc6nccs6)c6ncn8c6CCC8)C7)cc5)CC4)CC3)cc2)C(=O)N1 (centres unmarked) [GT-06244, 2-(6,7-dihydro-5H-pyrrolo[1,2-c]imidazol-1-yl)-2-(6-(4-(4-(4-(4-(2,4-dioxotetrahydropyrimidin-1(2H)-yl)benzyl)piperazin-1-yl)piperidin-1-yl)phenyl)-4-fluoro-1-oxoisoindolin-2-yl)-N-(thiazol-2-yl)acetamide]	500 to 1000
O=C1CCN(c2cccc(CN3CCN(C4CCN(c5ccc(-c6cc(F)c7c(c6)C(=O)N(C(C(=O)Nc6nccs6)c6ncn8c6CCC8)C7)cc5)CC4)CC3)c2)C(=O)N1 (centres unmarked) [GT-06245, 2-(6,7-dihydro-5H-pyrrolo[1,2-c]imidazol-1-yl)-2-(6-(4-(4-(4-(3-(2,4-dioxotetrahydropyrimidin-1(2H)-yl)benzyl)piperazin-1-yl)piperidin-1-yl)phenyl)-4-fluoro-1-oxoisoindolin-2-yl)-N-(thiazol-2-yl)acetamide]	< 500
O=C1CCN(c2ccc(CN3CCN(C4CCN(c5ccc(-c6cc(F)c7c(c6)C(=O)N(C(C(=O)Nc6nccs6)c6ncn8c6CCC8)C7)cc5)CC4)CC3)nc2)C(=O)N1 (centres unmarked) [GT-06246, 2-(6,7-dihydro-5H-pyrrolo[1,2-c]imidazol-1-yl)-2-(6-(4-(4-(4-((5-(2,4-dioxotetrahydropyrimidin-1(2H)-yl)pyridin-2-yl)methyl)piperazin-1-yl)piperidin-1-yl)phenyl)-4-fluoro-1-oxoisoindolin-2-yl)-N-(thiazol-2-yl)acetamide]	< 500
O=C1CCC(Nc2cccc(CN3CCN(C4CCN(c5ccc(-c6cc(F)c7c(c6)C(=O)N(C(C(=O)Nc6nccs6)c6ncn8c6CCC8)C7)cc5)CC4)CC3)c2)C(=O)N1 (centres unmarked) [GT-06247, 2-(6,7-dihydro-5H-pyrrolo[1,2-c]imidazol-1-yl)-2-(6-(4-(4-(4-(3-((2,6-dioxopiperidin-3-yl)amino)benzyl)piperazin-1-yl)piperidin-1-yl)phenyl)-4-fluoro-1-oxoisoindolin-2-yl)-N-(thiazol-2-yl)acetamide]	500 to 1000
